According to ChEMBL document CHEMBL3045468, “I2 catalyzed FriedelCrafts alkylation reaction of substituted anilines with ninhydrin: formation of novel products and their antimicrobial evaluation” (2013):
In brackets after ≈: the same amount, converted by molar mass. Activity calls are given as the source filed them. No cut-off for these calls is given here.

Key:
Candida tropicalis [1] = test: Antifungal activity against Candida tropicalis clinical isolate assessed as growth inhibition at 1 mg/ml after 96 hr by NCCLS agar diffusion method; type: functional; settings: read-out: DIZ
Vibrio cholerae [2] = test: Antibacterial activity against Vibrio cholerae 759 clinical isolate assessed as growth inhibition at 1 mg/ml after 24 hr by NCCLS agar diffusion method; type: functional; settings: for zone of inhibition at 1000 µg/mL: Vibrio cholerae, 759, 24 h, read-out: DIZ
Candida tropicalis [3] = test: Antifungal activity against Candida tropicalis clinical isolate assessed as growth inhibition after 96 hr by agar dilution method; type: functional
Klebsiella pneumoniae [4] = test: Antibacterial activity against Klebsiella pneumoniae J/I/4 clinical isolate assessed as growth inhibition at 1 mg/ml after 24 hr by NCCLS agar diffusion method; type: functional; settings: for zone of inhibition at 1000 µg/mL: J/I/4, 24 h, read-out: DIZ
Aspergillus niger [5] = test: Antifungal activity against Aspergillus niger clinical isolate assessed as growth inhibition at 1 mg/ml after 96 hr by NCCLS agar diffusion method; type: functional; settings: read-out: DIZ
Micrococcus luteus = test: Antibacterial activity against Micrococcus luteus ATCC 9341 clinical isolate assessed as growth inhibition at 1 mg/ml after 24 hr by NCCLS agar diffusion method; type: functional; settings: for zone of inhibition at 1000 µg/mL: ATCC 9341, 24 h, read-out: DIZ
Staphylococcus aureus [6] = test: Antibacterial activity against Staphylococcus aureus 29737 clinical isolate assessed as growth inhibition at 1 mg/ml after 24 hr by NCCLS agar diffusion method; type: functional; settings: for zone of inhibition at 1000 µg/mL: Staphylococcus aureus, 29737, 24 h, read-out: DIZ
Escherichia coli [7] = test: Antibacterial activity against Escherichia coli 319 clinical isolate assessed as growth inhibition at 1 mg/ml after 24 hr by NCCLS agar diffusion method; type: functional; settings: for zone of inhibition at 1000 µg/mL: Escherichia coli, 319, 24 h, read-out: DIZ
Pseudomonas aeruginosa [8] = test: Antibacterial activity against Pseudomonas aeruginosa 71 clinical isolate assessed as growth inhibition at 1 mg/ml after 24 hr by NCCLS agar diffusion method; type: functional
Candida albicans [9] = test: Antifungal activity against Candida albicans clinical isolate assessed as growth inhibition at 1 mg/ml after 96 hr by NCCLS agar diffusion method; type: functional; settings: read-out: DIZ
Candida albicans [10] = test: Antifungal activity against Candida albicans clinical isolate assessed as growth inhibition after 96 hr by agar dilution method; type: functional
Aspergillus niger [11] = test: Antifungal activity against Aspergillus niger clinical isolate assessed as growth inhibition after 96 hr by agar dilution method; type: functional
Shigella dysenteriae [12] = test: Antibacterial activity against Shigella dysenteriae 15 clinical isolate assessed as growth inhibition at 1 mg/ml after 24 hr by NCCLS agar diffusion method; type: functional; settings: for zone of inhibition at 1000 µg/mL: Shigella dysenteriae, 15, 24 h, read-out: DIZ
Bacillus pumilus = test: Antibacterial activity against Bacillus pumilus 11778 clinical isolate assessed as growth inhibition at 1 mg/ml after 24 hr by NCCLS agar diffusion method; type: functional; settings: for zone of inhibition at 1000 µg/mL: Bacillus pumilus, 11778, 24 h, read-out: DIZ
Shigella dysenteriae [13] = test: Antibacterial activity against Shigella dysenteriae 15 clinical isolate assessed as growth inhibition after 24 hr by agar dilution method; type: functional
Cryptococcus neoformans [14] = test: Antifungal activity against Cryptococcus neoformans clinical isolate assessed as growth inhibition after 96 hr by agar dilution method; type: functional
Cryptococcus neoformans [15] = test: Antifungal activity against Cryptococcus neoformans clinical isolate assessed as growth inhibition at 1 mg/ml after 96 hr by NCCLS agar diffusion method; type: functional; settings: read-out: DIZ
Vibrio cholerae [16] = test: Bactericidal activity against Vibrio cholerae 759 clinical isolate assessed as reduction of viable CFU count at MIC measured up to 48 hr relative to untreated control; type: functional, organism-based
Escherichia coli [17] = test: Bactericidal activity against Escherichia coli 319 clinical isolate assessed as reduction of viable CFU count at MIC measured up to 48 hr relative to untreated control; type: functional, organism-based
Vibrio cholerae [18] = test: Antibacterial activity against Vibrio cholerae 759 clinical isolate assessed as growth inhibition after 24 hr by agar dilution method; type: functional
Escherichia coli [19] = test: Antibacterial activity against Escherichia coli 319 clinical isolate assessed as morphological changes at MIC after 24 hr by scanning electron microscopic analysis; type: functional, organism-based
Staphylococcus aureus [20] = test: Antibacterial activity against Staphylococcus aureus 29737 clinical isolate assessed as growth inhibition after 24 hr by agar dilution method; type: functional
Escherichia coli [21] = test: Antibacterial activity against Escherichia coli 319 clinical isolate assessed as growth inhibition after 24 hr by agar dilution method; type: functional
Klebsiella pneumoniae [22] = test: Antibacterial activity against Klebsiella pneumoniae J/I/4 clinical isolate assessed as growth inhibition after 24 hr by agar dilution method; type: functional
Pseudomonas aeruginosa [23] = test: Antibacterial activity against Pseudomonas aeruginosa 71 clinical isolate assessed as growth inhibition after 24 hr by agar dilution method; type: functional

| Compound | growth inhibition (GI) (Vibrio cholerae [2]) | zone of inhibition at 1000 µg/mL (Klebsiella pneumoniae [4]) | growth inhibition (GI) (Micrococcus luteus) | growth inhibition (GI) (Staphylococcus aureus [6]) | zone of inhibition at 1000 µg/mL (Escherichia coli [7]) | growth inhibition (GI) (Pseudomonas aeruginosa [8]) | zone of inhibition at 1000 µg/mL (Bacillus pumilus) | growth inhibition (GI) (Bacillus pumilus) | growth inhibition (GI) (Shigella dysenteriae [12]) | growth inhibition (GI) (Klebsiella pneumoniae [4]) | growth inhibition (GI) (Escherichia coli [7]) | zone of inhibition at 1000 µg/mL (Vibrio cholerae [2]) | further results |
| --- | --- | --- | --- | --- | --- | --- | --- | --- | --- | --- | --- | --- | --- |
| Nc1ccc(C2(c3ccc(N)cc3)C(=O)c3ccccc3C2=O)cc1 | inactive | 7 mm | inactive | inactive | 6 mm | inactive | 8 mm |  |  |  |  |  | zone of inhibition at 1000 µg/mL (Candida tropicalis [1]): 8.2 mm; MIC (Candida tropicalis [3]): 1000 µg/mL (≈ 3050 µM); zone of inhibition at 1000 µg/mL (Aspergillus niger [5]): 10 mm; zone of inhibition at 1000 µg/mL (Candida albicans [9]): 9 mm; MIC (Candida albicans [10]): 1000 µg/mL (≈ 3050 µM); MIC (Aspergillus niger [11]): 1000 µg/mL (≈ 3050 µM); zone of inhibition at 1000 µg/mL (Shigella dysenteriae [12]): 7 mm |
| Nc1ccc(C2(c3ccc(N)c(Cl)c3)C(=O)c3ccccc3C2=O)cc1Cl | inactive | 8 mm | inactive | inactive | 8 mm | inactive |  | inactive |  |  |  |  | MIC (Shigella dysenteriae [13]; Shigella dysenteriae, 15, 24 h): 32000 µg/mL (≈ 80600 µM); zone of inhibition at 1000 µg/mL (Shigella dysenteriae [12]): 6 mm |
| Cc1cc(C2(c3cc(C)c(N)cc3F)C(=O)c3ccccc3C2=O)c(F)cc1N | inactive | 7 mm | inactive | inactive | 7 mm | inactive | 7 mm |  | inactive |  |  |  |  |
| COc1cc(N)ccc1C1(O)C(=O)c2ccccc2C1=O | inactive |  |  |  |  | inactive |  | inactive | inactive | inactive | inactive |  | zone of inhibition at 1000 µg/mL (Micrococcus luteus): 8 mm; zone of inhibition at 1000 µg/mL (Staphylococcus aureus [6]): 7 mm |
| CN(C)c1ccc(C2(O)C(=O)c3ccccc3C2=O)cc1 | inactive |  | inactive |  | 7 mm | inactive |  | inactive | inactive | inactive |  |  | zone of inhibition at 1000 µg/mL (Staphylococcus aureus [6]): 7 mm |
| Nc1ccc(C2(c3ccc(N)c(Br)c3)C(=O)c3ccccc3C2=O)cc1Br |  | 6 mm | inactive | inactive | 8 mm | inactive | 8 mm |  | inactive |  |  | 9 mm | zone of inhibition at 1000 µg/mL (Candida tropicalis [1]): 8 mm; MIC (Cryptococcus neoformans [14]): 1500 µg/mL (≈ 3090 µM); MIC (Candida tropicalis [3]): 2000 µg/mL (≈ 4110 µM); zone of inhibition at 1000 µg/mL (Aspergillus niger [5]): 12 mm; zone of inhibition at 1000 µg/mL (Cryptococcus neoformans [15]): 8 mm; zone of inhibition at 1000 µg/mL (Candida albicans [9]): 10 mm; MIC (Candida albicans [10]): 2500 µg/mL (≈ 5140 µM); MIC (Aspergillus niger [11]): 1000 µg/mL (≈ 2060 µM) |
| Cc1cc(C2(c3cc(C)c(N)c(C)c3)C(=O)c3ccccc3C2=O)cc(C)c1N | inactive |  | inactive | inactive |  | inactive | 9 mm |  | inactive | inactive | inactive |  |  |
| Cc1ccc(NC2(c3cc(C)c(C)cc3N)C(=O)c3ccccc3C2=O)cc1C | inactive |  | inactive | inactive | 7 mm | inactive |  | inactive | inactive | inactive |  |  |  |
| COc1cc(C2(Nc3cc(Cl)ccc3OC)C(=O)c3ccccc3C2=O)c(Cl)cc1N |  |  |  | inactive |  | inactive |  | inactive | inactive | inactive | inactive | 8 mm | zone of inhibition at 1000 µg/mL (Micrococcus luteus): 9 mm; Activity (Vibrio cholerae [16]): Active; Activity (Escherichia coli [17]): Active; MIC (Vibrio cholerae [18]; Vibrio cholerae, 759, 24 h): 32000 µg/mL (≈ 70000 µM) |
| COc1cc(C2(c3ccc(N)c(OC)c3)C(=O)c3ccccc3C2=O)ccc1N |  | 7 mm | inactive | inactive |  | inactive | 8 mm |  | inactive |  | inactive | 7 mm |  |
| Nc1c(Cl)cc(Cl)cc1C1(Nc2ccc(Cl)cc2Cl)C(=O)c2ccccc2C1=O |  | 7 mm | inactive | inactive | 8 mm | inactive |  | inactive |  |  |  | 7 mm | MIC (Candida tropicalis [3]): 1000 µg/mL (≈ 2150 µM); zone of inhibition at 1000 µg/mL (Aspergillus niger [5]): 8 mm; zone of inhibition at 1000 µg/mL (Cryptococcus neoformans [15]): 8 mm; MIC (Aspergillus niger [11]): 1000 µg/mL (≈ 2150 µM); zone of inhibition at 1000 µg/mL (Shigella dysenteriae [12]): 7 mm |
| Cc1cc(C2(c3ccc(N)c(C)c3)C(=O)c3ccccc3C2=O)ccc1N |  |  | inactive | inactive | 7 mm | inactive | 7 mm |  |  | inactive |  | 8 mm | zone of inhibition at 1000 µg/mL (Candida tropicalis [1]): 8 mm; MIC (Candida tropicalis [3]): 2000 µg/mL (≈ 5610 µM); zone of inhibition at 1000 µg/mL (Aspergillus niger [5]): 7.6 mm; Activity (Vibrio cholerae [16]): Active; Activity (Escherichia coli [17]): Active; Activity (Escherichia coli [19]): Active; zone of inhibition at 1000 µg/mL (Candida albicans [9]): 10 mm; MIC (Candida albicans [10]): 1000 µg/mL (≈ 2810 µM); MIC (Aspergillus niger [11]): 1000 µg/mL (≈ 2810 µM); zone of inhibition at 1000 µg/mL (Shigella dysenteriae [12]): 7 mm |
| CNc1ccc(C2(c3ccc(NC)cc3)C(=O)c3ccccc3C2=O)cc1 |  | 7.5 mm | inactive | inactive | 7 mm | inactive |  | inactive | inactive |  |  | 8 mm |  |
| Nc1ccc(C2(O)C(=O)c3ccccc3C2=O)c2ncccc12 | inactive |  | inactive | inactive | 8 mm | inactive |  | inactive | inactive | inactive |  |  |  |
| Nc1ccc(C2(c3ccc(N)c([N+](=O)[O-])c3)C(=O)c3ccccc3C2=O)cc1[N+](=O)[O-] | inactive |  | inactive |  |  | inactive |  | inactive | inactive | inactive | inactive |  | zone of inhibition at 1000 µg/mL (Staphylococcus aureus [6]): 8 mm |
| Nc1ccc(C2(c3ccc(N)c(I)c3)C(=O)c3ccccc3C2=O)cc1I | inactive |  |  |  |  |  |  | inactive | inactive | inactive | inactive |  | zone of inhibition at 1000 µg/mL (Micrococcus luteus): 8 mm; zone of inhibition at 1000 µg/mL (Staphylococcus aureus [6]): 8 mm; zone of inhibition at 1000 µg/mL (Pseudomonas aeruginosa [8]; Pseudomonas aeruginosa, 71, 24 h, read-out: DIZ): 8 mm |
| OC(Cn1cncn1)(Cn1cncn1)c1ccc(F)cc1F [FLUCONAZOLE] |  |  |  |  |  |  |  |  |  |  |  |  | MIC (Cryptococcus neoformans [14]): 8 µg/mL (≈ 26.1 µM); MIC (Candida tropicalis [3]): 8 µg/mL (≈ 26.1 µM); MIC (Candida albicans [10]): 4 µg/mL (≈ 13.1 µM); MIC (Aspergillus niger [11]): 10 µg/mL (≈ 32.7 µM) |
| GENTAMICIN |  |  |  |  |  |  |  |  |  |  |  |  | MIC (Staphylococcus aureus [20]): 1000 µg/mL; MIC (Shigella dysenteriae [13]): 2000 µg/mL; MIC (Escherichia coli [21]): 500 µg/mL; MIC (Klebsiella pneumoniae [22]): 250 µg/mL; MIC (Pseudomonas aeruginosa [23]): 4000 µg/mL; MIC (Vibrio cholerae [18]): 2000 µg/mL |
| CCN(CC)c1ccc(C2(O)C(=O)c3ccccc3C2=O)cc1 | inactive |  | inactive | inactive | 9 mm | inactive | 7 mm |  |  | inactive |  |  | zone of inhibition at 1000 µg/mL (Shigella dysenteriae [12]): 7 mm |
